Test: in vitro release study of TKI from ocular implants (polymer composites)
Assay type: physicochemical
Settings: for burst release at day 1 / period of release at the stated rate: formulation of 50% polymer (RG755 or RG504) and 50% TKI; for time over which the ocular composite continues to release the TKI / release of the TKI from the ocular implant (percent of TKI): phosphate buffered saline release medium pH 7.4, 37° C.; for release of the TKI from the ocular implant (percent of TKI): within 30 days
Procedure: The in vitro release study was carried out in an incubator at 37° C. shaking at 120 rpm.
The release medium was 0.02% Polysorbate 80 containing 10 mM phosphate buffered saline, pH7.4. The medium and implants were placed in 20 mL scintillation vials. At given time points, the medium containing released drug was collected and replaced with fresh medium. The concentration of the compound in the release medium was analyzed using HPLC.

SMILES | burst release at day 1 | period of release at the stated rate | time over which the ocular composite continues to release the TKI | release of the TKI from the ocular implant (percent of TKI)
Cc1cc(C(=O)Nc2cccc(C(=O)c3ccc4c(c3)NC(=O)C4=CNc3ccc(CN4CCCC4)cc3)c2)n(C)n1 [Example 206, 2,5-Dimethyl-2H-pyrazole-3-carboxylic acid (3-{2-oxo-3-[(4-pyrrolidin-1-ylmethyl-phenylamino)-methylene]-2,3-dihydro-1H-indole-6-carbonyl}-phenyl)-amide] | minimal burst release | approximately 50 days | > 6 months | 2-12%
Cc1cc(C(=O)Nc2cccc(C(=O)c3ccc4c(c3)NC(=O)C4=CNc3ccc(CCCC(=O)O)cc3)c2)n(C)n1 [Example 324, 4-{4-[(6-{3-[(2,5-Dimethyl-2H-pyrazole-3-carbonyl)-amino]-benzoyl}-2-oxo-1,2-dihydro-indol-3-ylidenemethyl)-amino]-phenyl}-butyric acid] | – | – | > 6 months | 2-8%
Cc1ccoc1C(=O)Nc1cccc(C(=O)c2ccc3c(c2)NC(=O)C3=CNc2ccc(CCC(=O)[O-])cc2)c1.[Na+] [Example 378, 3-{4-[(6-{3-[(3-Methyl-furan-2-carbonyl)-amino]-benzoyl}-2-oxo-1,2-dihydro-indol-3-ylidenemethyl)-amino]-phenyl}-propionic acid, sodium salt] | minimal burst release | approximately 50 days | > 6 months | 29-35%

From patent US7749530B2, “Kinase inhibitors” (Allergan, Inc., priority 2005, dated 2010)
